Measured values taken from ChEMBL document CHEMBL1909046, “DrugMatrix in vitro pharmacology data”.
pIC50, pKi: −log10 of the molar value.

Tests used:
[1] = molecular target: Beta-2 adrenergic receptor (Homo sapiens, UniProt P07550); assay: DRUGMATRIX: Adrenergic beta2 radioligand binding (ligand: [3H] CGP-12177); assay type: cell membranes, CHO, Membrane; details: cho; Not Active = under 50% inhibition at 10 µM
[2] = molecular target: Platelet-activating factor receptor (Homo sapiens, UniProt P25105); assay type: tissue-based; note: in other assays of this panel Not Active means under 50% inhibition at 10 µM
[3] = molecular target: T1, Alpha-1D adrenergic receptor (Homo sapiens, UniProt P25100); assay type: cell membranes, HEK293, Membrane; details: hek293; note: in other assays of this panel Not Active means under 50% inhibition at 10 µM
T1 sequence (P25100 whole entry): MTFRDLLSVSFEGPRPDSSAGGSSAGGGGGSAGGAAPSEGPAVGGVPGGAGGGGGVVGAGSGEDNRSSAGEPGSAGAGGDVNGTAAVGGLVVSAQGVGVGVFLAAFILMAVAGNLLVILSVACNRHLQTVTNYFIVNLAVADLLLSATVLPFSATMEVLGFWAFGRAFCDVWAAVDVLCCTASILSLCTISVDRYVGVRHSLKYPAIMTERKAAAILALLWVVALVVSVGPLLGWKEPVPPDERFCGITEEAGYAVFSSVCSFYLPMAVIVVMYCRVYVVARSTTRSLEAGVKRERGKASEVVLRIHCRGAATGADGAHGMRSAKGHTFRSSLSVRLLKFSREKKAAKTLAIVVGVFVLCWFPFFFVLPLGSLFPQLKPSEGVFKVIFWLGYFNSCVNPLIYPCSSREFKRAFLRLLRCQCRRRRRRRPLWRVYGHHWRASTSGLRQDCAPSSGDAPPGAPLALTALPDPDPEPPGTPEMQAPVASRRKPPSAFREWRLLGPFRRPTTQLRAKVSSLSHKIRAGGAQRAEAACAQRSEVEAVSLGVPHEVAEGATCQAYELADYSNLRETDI

D(3) dopamine receptor = D(3) dopamine receptor (Homo sapiens, UniProt P35462); assay: DRUGMATRIX: Dopamine D3 radioligand binding (ligand: [3H] Spiperone); assay type: cell membranes, CHO, Membrane
[4] = DRUGMATRIX: Purinergic P2X radioligand binding (ligand: [3H] alpha, beta-Methylene-ATP); assay type: cell membranes, Oryctolagus cuniculus, New Zealand albino, Urinary bladder, Membrane; details: Not Active = under 50% inhibition at 10 µM
[5] = molecular target: C-C chemokine receptor type 2 (Homo sapiens, UniProt P41597); assay type: cell membranes, CHO-K1, Membrane; note: in other assays of this panel Not Active means under 50% inhibition at 10 µM
Sequence of C-C chemokine receptor type 2 (P41597 whole entry): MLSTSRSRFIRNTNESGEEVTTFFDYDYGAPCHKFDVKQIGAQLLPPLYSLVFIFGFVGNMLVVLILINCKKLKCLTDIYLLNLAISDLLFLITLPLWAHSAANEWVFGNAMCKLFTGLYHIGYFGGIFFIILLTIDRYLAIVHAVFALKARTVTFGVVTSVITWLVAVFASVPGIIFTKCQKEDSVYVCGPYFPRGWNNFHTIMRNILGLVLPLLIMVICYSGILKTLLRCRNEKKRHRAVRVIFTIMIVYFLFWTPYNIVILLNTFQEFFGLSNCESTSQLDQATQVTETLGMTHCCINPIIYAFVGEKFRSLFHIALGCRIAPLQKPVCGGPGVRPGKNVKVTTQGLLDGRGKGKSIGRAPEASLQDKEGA

Sequence of Platelet-activating factor receptor (P25105 whole entry): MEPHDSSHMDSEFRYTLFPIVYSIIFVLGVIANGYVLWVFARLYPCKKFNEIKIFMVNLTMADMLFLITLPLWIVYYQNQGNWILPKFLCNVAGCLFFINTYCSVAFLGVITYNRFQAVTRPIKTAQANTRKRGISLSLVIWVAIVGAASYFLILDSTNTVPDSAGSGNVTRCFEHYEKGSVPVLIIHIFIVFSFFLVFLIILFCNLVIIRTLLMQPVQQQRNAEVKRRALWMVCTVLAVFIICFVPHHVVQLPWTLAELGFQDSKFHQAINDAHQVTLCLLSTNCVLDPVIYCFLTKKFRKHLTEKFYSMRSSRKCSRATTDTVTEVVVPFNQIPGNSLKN
Sequence of D(3) dopamine receptor (P35462 whole entry): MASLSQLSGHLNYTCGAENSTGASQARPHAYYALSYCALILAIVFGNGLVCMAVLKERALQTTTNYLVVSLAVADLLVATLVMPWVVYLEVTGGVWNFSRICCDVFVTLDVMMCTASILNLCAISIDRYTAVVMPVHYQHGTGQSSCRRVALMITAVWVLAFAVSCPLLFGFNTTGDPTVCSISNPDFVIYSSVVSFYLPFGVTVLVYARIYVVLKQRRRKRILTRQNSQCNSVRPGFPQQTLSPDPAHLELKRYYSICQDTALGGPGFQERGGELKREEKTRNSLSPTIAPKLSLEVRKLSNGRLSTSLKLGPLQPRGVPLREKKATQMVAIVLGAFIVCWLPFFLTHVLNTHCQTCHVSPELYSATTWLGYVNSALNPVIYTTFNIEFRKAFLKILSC

Molecule: CCN1CCN(c2cc3c(cc2F)c(=O)c(C(=O)O)cn3C2CC2)CC1 [ENROFLOXACIN]
- IC50 [1]: Not Active
- IC50 [2]: Not Active
- IC50 [3]: Not Active
- IC50 (D(3) dopamine receptor; cho): Not Active
- IC50 [4]: Not Active
- Ki [4]: Not Active
- IC50 ([5]; cho-k1): Not Active

Molecule: CC(C)Cc1ccc([C@H](C)C(=O)O)cc1 [DEXIBUPROFEN]
- IC50 [1]: Not Active
- IC50 [2]: Not Active
- IC50 [3]: Not Active
- IC50 (D(3) dopamine receptor; cho): Not Active
- IC50 [4]: Not Active
- Ki [4]: Not Active
- IC50 ([5]; cho-k1): Not Active

Molecule: O=C(O)CNCP(=O)(O)O [GLYPHOSATE]
- IC50 [1]: Not Active
- IC50 [2]: Not Active
- IC50 [3]: Not Active
- IC50 (D(3) dopamine receptor; cho): Not Active
- IC50 [4]: Not Active
- Ki [4]: Not Active
- IC50 ([5]; cho-k1): Not Active

Molecule: CO[C@H]1O[C@@H]2O[C@@]3(C)CC[C@H]4[C@H](C)CC[C@@H]([C@H]1C)[C@@]24OO3
- IC50 [1]: Not Active
- IC50 [2]: Not Active
- IC50 [3]: Not Active
- IC50 (D(3) dopamine receptor; cho): Not Active
- IC50 [4]: Not Active
- Ki [4]: Not Active
- IC50 ([5]; cho-k1): Not Active

Molecule: Nc1ccc(C(=O)O)c(O)c1 [AMINOSALICYLIC ACID]
- IC50 [1]: Not Active
- IC50 [2]: Not Active
- IC50 [3]: Not Active
- IC50 (D(3) dopamine receptor; cho): Not Active
- IC50 [4]: Not Active
- Ki [4]: Not Active
- IC50 ([5]; cho-k1): Not Active

Molecule: Nc1nc(F)nc2c1ncn2[C@@H]1O[C@H](CO)[C@@H](O)[C@@H]1O [FLUDARABINE]
- IC50 [1]: Not Active
- IC50 [2]: Not Active
- IC50 [3]: Not Active
- IC50 (D(3) dopamine receptor; cho): Not Active
- IC50 [4]: Not Active
- Ki [4]: Not Active
- IC50 ([5]; cho-k1): Not Active

Molecule: CHROMIC CHLORIDE
- IC50 [1]: Not Active
- Ki [1]: Not Active
- IC50 [2]: Not Active
- Ki [2]: Not Active
- IC50 [3]: Not Active
- Ki [3]: Not Active
- IC50 (D(3) dopamine receptor; cho): Not Active
- Ki (D(3) dopamine receptor; cho): Not Active
- IC50 [4]: Not Active
- Ki [4]: Not Active
- IC50 ([5]; cho-k1): Not Active
- Ki ([5]; cho-k1): Not Active

Molecule: O=C(O)CO [GLYCOLIC ACID]
- IC50 [1]: Not Active
- IC50 [2]: Not Active
- IC50 [3]: Not Active
- IC50 (D(3) dopamine receptor; cho): Not Active
- IC50 [4]: Not Active
- Ki [4]: Not Active
- IC50 ([5]; cho-k1): Not Active

Molecule: COC(=O)C[C@](O)(CCC(C)(C)O)C(=O)O[C@@H]1C(OC)=C[C@]23CCCN2CCc2cc4c(cc2[C@H]13)OCO4 [HARRINGTONINE]
- IC50 [1]: Not Active
- IC50 [2]: Not Active
- IC50 [3]: Not Active
- IC50 (D(3) dopamine receptor; cho): Not Active
- IC50 [4]: Not Active
- Ki [4]: Not Active
- IC50 ([5]; cho-k1): Not Active

Molecule: CC12CCC(CC1=O)C2(C)C (stereo not given) [CAMPHOR]
- IC50 [1]: Not Active
- IC50 [2]: Not Active
- IC50 [3]: Not Active
- IC50 (D(3) dopamine receptor; cho): Not Active
- IC50 [4]: Not Active
- Ki [4]: Not Active
- IC50 ([5]; cho-k1): Not Active

Molecule: CCN1CCN(C(=O)N[C@@H](C(=O)N[C@@H]2C(=O)N3[C@@H]2SC(C)(C)[C@@H]3C(=O)O)c2ccccc2)C(=O)C1=O [PIPERACILLIN]
- IC50 [1]: Not Active
- IC50 [2]: Not Active
- IC50 [3]: Not Active
- IC50 (D(3) dopamine receptor; cho): Not Active
- IC50 [4]: Not Active
- Ki [4]: Not Active
- IC50 ([5]; cho-k1): Not Active

Molecule: C=CCO [ALLYL ALCOHOL]
- IC50 [1]: Not Active
- IC50 [2]: Not Active
- IC50 [3]: Not Active
- IC50 (D(3) dopamine receptor; cho): Not Active
- IC50 [4]: Not Active
- Ki [4]: Not Active
- IC50 ([5]; cho-k1): Not Active

Molecule: O=C(O)CCc1nc(-c2ccccc2)c(-c2ccccc2)o1 [OXAPROZIN]
- IC50 [1]: Not Active
- IC50 [2]: Not Active
- IC50 [3]: Not Active
- IC50 (D(3) dopamine receptor; cho): Not Active
- IC50 [4]: Not Active
- Ki [4]: Not Active
- IC50 ([5]; cho-k1): Not Active

Molecule: c1ccc2sc(SSc3nc4ccccc4s3)nc2c1 [BENZOTHIAZYL DISULFIDE]
- IC50 [1]: Not Active
- IC50 [2]: Not Active
- IC50 [3]: Not Active
- pIC50 (D(3) dopamine receptor; read-out: IC50): 6.07
- pKi (D(3) dopamine receptor; read-out: Ki): 6.54
- IC50 [4]: Not Active
- Ki [4]: Not Active
- pIC50 ([5]; read-out: IC50): 5.62
- pKi ([5]; read-out: Ki): 6.03
